Molecular target: T1, rabbit muscle aldolase (Oryctolagus cuniculus, UniProt P00883)
T1 construct: gene ALDOA
T1 sequence (P00883 2-364): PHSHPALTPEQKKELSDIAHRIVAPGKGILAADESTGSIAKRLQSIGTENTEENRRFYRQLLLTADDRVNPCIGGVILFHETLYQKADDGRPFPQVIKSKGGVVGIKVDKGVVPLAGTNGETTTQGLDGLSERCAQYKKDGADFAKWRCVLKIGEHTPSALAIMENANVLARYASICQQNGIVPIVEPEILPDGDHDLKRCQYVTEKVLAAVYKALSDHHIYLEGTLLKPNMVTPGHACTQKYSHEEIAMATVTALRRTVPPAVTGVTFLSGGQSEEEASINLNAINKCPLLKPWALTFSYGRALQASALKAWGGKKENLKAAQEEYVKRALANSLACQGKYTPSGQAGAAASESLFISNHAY
Experiment: coupled NADH assay (alpha-GDH/TPI), […] nm
Format: biochemical
Conditions: 2 mM F16P; pH 7.3; 25 °C; no TRAP peptide

## O=P(O)(O)OC[C@H]1OC(O)(COP(=O)(O)O)[C@@H](O)[C@@H]1O (stereo partly shown) [fructose 1,6-bisphosphate]
  coupled NADH assay (alpha-GDH/TPI), 340 nm: The assay was performed as described previously, however in the absence of TRAP-peptide
